Data on four substances can be found in patent publication US5633229A, “Method of using prophenins-antibiotic peptides” (University of California, priority 1995, dated 1997).

Where no end group is shown, it is not given here.

Assay [1] has as its system C. albicans, strain 820. The experiment in a line: radial diffusion assay in agarose gels, C. albicans. It counts as cell-based. The conditions noted are these: for inhibitory activity against C. albicans (FIG. 4c): result in words; for minimal microbicidal concentration: Target C. albicans. Here is the method:
(§1) Aliquots (66 μl ) of each fraction were dried by vacuum centrifugation, and resuspended in approximately 6.6 μl of 0.01% acetic acid. Five μl samples of this concentrate were tested for antimicrobial activity against E. coli ML-35, L. monocytogenes, Strain EGD and C. albicans, strain 820 by radial diffusion and gel overlay techniques (Lehrer, R. I. et al. J Immunol Meth (1991) 137:167-173). Active fractions were further examined by acid-urea PAGE and SDS-PAGE. Prophenins emerged from the P10 column in fractions 38-43 (39.6 ml total volume), which contained a total of 18 mg protein BCA analysis.
(§2) The radial diffusion assay in agarose gels as described above was also used to test the activity of the purified prophenins. Samples of 5 μL each were added to 3 mm wells in thin gels composed of 10 mM sodium phosphate, 30 mg/ml trypticase soy broth powder in 1% agarose and containing approximately 4×10^5 CFU/ml of mid-log phase organisms. After allowing 3 hours for the samples to diffuse into the underlayer gel, a nutrient-rich overlay gel was poured and the plates were incubated for 24 hours at 37° C. to allow surviving organisms to form microcolonies. The diameters of the clear zones were measured and expressed in "units" (10 units=1 mm) as described previously.

Assay [2] has as its system L. monocytogenes, Strain EGD. The experiment in a line: radial diffusion assay in agarose gels, L. monocytogenes. It counts as cell-based. The settings on record: Target L. monocytogenes. On the procedure: as §1, §2
The subject of assay [3] is E. coli ML-35. Nature of the assay: radial diffusion assay in agarose gels, E. coli. The conditions noted are these: for minimal microbicidal concentration: Target E. coli. It counts as cell-based. On the procedure:
as §1, §2

The subject of assay [4] is lipid polysaccharide (LPS) of the Gram-negative bacterium E. coli strain 0.55B5. Nature of the assay: Limulus amebocyte lysate (LAL) test for endotoxin binding. The settings on record: for LPS-induced gel formation of E-TOXATE (Table 3): 60 minutes at 37° C. Also noted: key to LPS-induced gel formation of E-TOXATE (Table 3): ++: a solid gel (no inhibition); +: increased viscosity without solid gel formation (partial inhibition); 0: gelation was absent (complete inhibition). It counts as biochemical. Here is the method:
The prophenins of the invention were tested for their ability to bind the lipid polysaccharide (LPS) of the Gram-negative bacterium E. coli strain 0.55B5. The assay was the Limulus amebocyte lysate (LAL) test for endotoxins conducted in the presence and absence of the test compounds. The test was conducted using the procedure described in Sigma Technical Bulletin No. 210 as revised in Dec. 1992 and published by Sigma Chemical Company, St. Louis, Mo.
The LAL test is based on the ability of LPS to effect gelation in the commercial reagent E-TOXATE™ which is prepared from the lysate of circulating amebocytes of the Horseshoe Crab Limulus polyphemus. As described in the technical bulletin, when exposed to minute quantities of LPS, the lysate increases in opacity as well as viscosity and may gel or clot depending on the concentration of endotoxin. The technical bulletin goes on to speculate that the mechanism appears analogous to the clotting of mammalian blood and involves the steps of activation of a trypsin-like preclotting enzymes by the LPS in the presence of calcium ion, followed by enzymic modifications of a "coagulogen" by proteolysis to produce a clottable protein. These steps are believed tied to the biologically active or "pyrogenic" portion of the molecule. It has been shown previously that detoxified LPS (or endotoxin) gives a negative LAL test.
In the assay, the amounts of prophenin-1 and polymyxin B (78% free polymyxin, Sigma) were preincubated in a final volume of 0.2 ml and the test mixtures contained LPS at a final concentration of 0.05 endotoxin unit/ml and E-TOXATE™ at the same concentration. The test compounds were incubated together with the LPS for 15 minutes before the E-TOXATE™ was added to a final volume (after E-TOXATE™ addition) of 0.2 ml. The tubes were then incubated for 60 minutes at 37° C. and examined for the formation of a gel.

Consider HNP-1: human defensin (HNP-1), control, for which the “inhibitory activity against C. albicans (FIG. 4c)” value in assay [1] is recorded as “substantially noninhibitory”.

In the case of “HNP-2: column head of Table 2; probably the human defensin control named HNP-1 in the text (CYCRIPACIAGERRYGTCIYQGRLWAFCC; ends and bridges not checked; cysteine pairing not given here; UniProt P59665 66-94, looked up)”, the minimal microbicidal concentration was 12.0 µg/mL in assay [2], over 150 µg/mL in assay [1] and 80.0 µg/mL in assay [3].

With “PG-3: protegrin-3 (PG3), control (RGGGLCYCRRRFCVCVGR; ends and bridges not checked; cysteine pairing not given here; UniProt P32196 131-148, looked up)”, the minimal microbicidal concentration in assay [2] amounted to 9.0 µg/mL; in assay [1], 6.9 µg/mL; in assay [3], 8.6 µg/mL. In assay [1], the “inhibitory activity against C. albicans (FIG. 4c)” value is “successful antifungals”. In assay [3] (result in words), the “inhibitory activity against E. coli ML-35 (FIG. 4a)” value is reported as “more inhibitory than HNP-1”.

In the case of Polymyxin B, in assay [4] (LAL test, LPS 0.05 endotoxin unit/ml), the “concentration giving complete inhibition of gelation” value was determined as 5 µg/mL. Also, the “concentration giving complete inhibition of gelation, molar” value in assay [4] (LAL test, converted from μg/ml) is reported as “≈ 4.2 μM”. The “LPS-induced gel formation of E-TOXATE (Table 3)” value in assay [4] (peptide 0.16 μg/ml, LPS 0.05 endotoxin unit/ml) was “++”; in assay [4] (peptide 0.31 μg/ml, LPS 0.05 endotoxin unit/ml), “++”; in assay [4] (peptide 0.63 μg/ml, LPS 0.05 endotoxin unit/ml), “++”; in assay [4] (peptide 1.25 μg/ml, LPS 0.05 endotoxin unit/ml), “++”; in assay [4] (peptide 2.5 μg/ml, LPS 0.05 endotoxin unit/ml), “+”; in assay [4] (peptide 5.0 μg/ml, LPS 0.05 endotoxin unit/ml) it was 0. Moreover, in assay [4] (peptide 10.0 μg/ml, LPS 0.05 endotoxin unit/ml), the “LPS-induced gel formation of E-TOXATE (Table 3)” value stood at 0.
